According to patent US5491159A, “2-(3,5-di-tert-butyl-4-hydroxy-phenyl)-oxazoles as anti-atherosclerotic agents” (American Home Products Corporation, priority 1994, dated 1996):
pIC50: −log10 of the molar value.

How the values were obtained:
rabbit or monkey LDL = test: Inhibition of Copper Ion Mediated Oxidation of Low Density Lipoprotein (in vitro); type: biochemical; details: Cu^+2, rabbit or monkey LDL, 37° C., 90 minutes, absorbance at 532 nm; non-linear regression log [I] vs. % inhibition
Method: In this in vitro assay, the inhibition of Cu^+2 mediated oxidation of rabbit or monkey LDL by an invention compound is determined spectrophotometrically. Oxidation of LDL results in the formation of LDL-diene which absorbs light at 532 nm. Inhibition of oxidation of LDL leads to a decrease in absorbance at 532 nm.
Rabbit or monkey LDL is prepared according to the procedures of Havel, Eder and Gragdon, "The Distribution and Chemical Composition of Ultracentrifugally Separated Lipoproteins in Human Serum,: J. Clin. Invest. 34, 1345-1353 (1955) and Parhtasarathy, Wieland and Steriberg, "A Role for Endothelial Cell Lipoxygenase in the Oxidative Modification of Low Density Lipoprotein, " Proc. Natl. Acad. Sci. USA 86, 1046-1050 (1989). Test compound solutions are prepared by dissolving the invention compounds in ethanol at concentrations up to 248 μM. The medium used is Dulbecco's phosphate buffered saline containing 0.5 mg/ml bovine serum albumin. For standards, 0 to 10 μl of an aqueous solution of 1,1,3,3-tetraethoxypropane (1 μmol/ml H2 O) in 4.1 ml of medium is used.
Test compound solution (100 μl) is added to 4 ml of medium in incubation tubes. To each tube is added 10 μl of LDL solution and 25 μl of aqueous copper sulfate solution (1.32 mg/ml H2 O). The tubes are incubated at 37° C. for 90 minutes and the oxidation reaction quenched by addition of 1 ml of thiobarbituric acid solution (0.67% in 50% acetic acid). The tubes are heated at 90° C. for 1 hour, then chilled in an ice bath and the chromophore extracted into 2 ml of n-butanol. Absorbence is read at 532 nm and the results are reported as nmols of malondialdehyde equivalents.
Significant differences (p<0.05) are determined by the Dunnett T-test or by the Student-Newman Keuls Test for significant differences between means. The assay is conducted using several concentrations [I] of the inhibitor test compounds. The LDL solution concentrations at different experiments were either 1.5 mg/ml, 2.5 mg/ml or 10.3 mg/ml. The IC50 is determined by non-linear regression, plotting log [I] vs. % inhibition. (Reference: K. Yagi, Biochemical Medicine 15, 212-216 (1976)).

LDL [1] = details: cited from earlier work
WHHL rabbits = details: cited from earlier work
LDL [2] = details: cited from earlier work; remark: listed apart in the source

SMILES: COC(=O)Cc1nc(-c2cc(C(C)(C)C)c(O)c(C(C)(C)C)c2)oc1C [Example 1, [2-(3,5-di-tert-butyl-4-hydroxyphenyl)-5-methyloxazol-4-yl]-acetic acid methyl ester]
- pIC50 (rabbit or monkey LDL): 7.15

SMILES: Cc1oc(-c2cc(C(C)(C)C)c(O)c(C(C)(C)C)c2)nc1CC(=O)O [Example 2, [2-(3,5-di-tert-butyl-4-hydroxyphenyl)-5-methyloxazol-4-yl]-acetic acid]
- pIC50 (rabbit or monkey LDL): 6.80

SMILES: CCOC(=O)Cc1nc(-c2cc(C(C)(C)C)c(O)c(C(C)(C)C)c2)oc1C [Example 3, [2-(3,5-di-tert-butyl-4-hydroxyphenyl)-5-methyloxazol-4-yl]-acetic acid ethyl ester]
- pIC50 (rabbit or monkey LDL): 6.57

SMILES: COC(=O)Cc1coc(-c2cc(C(C)(C)C)c(O)c(C(C)(C)C)c2)n1 [Example 4, [2-(3,5-di-tert-butyl-4-hydroxyphenyl)-oxazol-4-yl]-acetic acid methyl ester]
- pIC50 (rabbit or monkey LDL): 6.60

SMILES: COC(=O)NC(=O)Cc1nc(-c2cc(C(C)(C)C)c(O)c(C(C)(C)C)c2)oc1C [Example 5, {2-[2-(3,5-di-tert-butyl-4-hydroxyphenyl)-5-methyloxazol-4-yl]acetyl}carbamic acid methyl ester]
- pIC50 (rabbit or monkey LDL): 6.64

SMILES: CC(C)(Sc1cc(C(C)(C)C)c(O)c(C(C)(C)C)c1)Sc1cc(C(C)(C)C)c(O)c(C(C)(C)C)c1 [probucol]
- inhibition of cell mediated oxidative modification of LDL (in words) (LDL [1]): inhibits both cell mediated and Cu^+2 mediated oxidative modification of LDL
- inhibition of the formation of atherosclerotic lesions (in words) (WHHL rabbits): inhibit the formation of atherosclerotic lesions in WHHL rabbits
- pIC50 (rabbit or monkey LDL): 6.57
- inhibition of Cu^+2 mediated oxidative modification of LDL (in words) (LDL [2]): inhibits both cell mediated and Cu^+2 mediated oxidative modification of LDL
